Results: patent publication US20120058172A1, “PLANT EXTRACTS FOR USE IN BRAIN MODULATION” (Intermed Discovery GmbH, priority 2006, published 2012)

Tested on: mouse
Test: Marble burying test in the mouse
Type: in vivo
Details: for Number of marbles covered by sawdust, mean ± s.e.m.: 15 mice per group
From the text: More preferably, psychotropic activity can be tested using the Marble Burying Test in the mouse. The method, which detects anxiolytic/tranquillizing activity, follows that described by Broekkamp et al (Eur. J. Pharmacol., 126, 223-229, 1986). The principle of the test is that mice exposed to novel objects (marbles) will bury them in the sawdust floor covering. Anxiolytics decrease the number of marbles buried at non-sedative doses. For the experiment, mice (Male Rj: NMRI mice, weighing 20-30 g (max. range per experiment=5 g) at the beginning of the experiments, obtained from Elevage Janvier, 53940 Le Genest-Saint-Isle, France) are individually placed in transparent plastic cages (33×21×18 cm) with 5 cm of sawdust on the floor. 25 marbles are grouped in the centre of the cage. The cage is covered with an inverted plastic cage. Each test cage, together with the marbles, is impregnated with mouse odor before-hand by leaving 10 mice in the cage for 15 minutes. These mice then play no further role in the experiment. The mice are treated with test substance intraperitoneally (i.p.) 30 min before the test. Administration volume: 10 ml/kg, different dosages are tested (e.g. 2 or more dosages selected from 1, 3, 10, 30 and 100 mg/kg). The test substance is tested for solubility by cold stirring of the highest intended dose for 10 minutes in physiological saline. If soluble, physiological saline serves as vehicle. If insoluble, the test substance is homogenized and dispersed using a mortar and a pestle in 0.2% hydroxypropylmethylcellulose (HPMC) in physiological saline which then serves as the vehicle. Unless indicated otherwise, doses are prepared W/V (stock) and then V/V (serial dilutions) for test substances in solution, and by separate weighings (W/V) for test substances in suspension. Preparations are made freshly for each day of administration and precautions are taken to preserve the homogeneity of suspensions (if applicable) during the period of administration. As control, vehicle is administered. The number of marbles covered by sawdust (2/3 or more) is then counted at the end of a 30 minute test. 15 mice are studied per group. The test is performed blind. Each test substance is evaluated at 3 doses, administered i.p. 30 minutes before the test, and compared with a vehicle control group. Fluoxetine (32 mg/kg i.p.), administered under the same experimental conditions, is used as reference substance. Each experiment therefore includes 5 groups. Data are analyzed by comparing treated groups with vehicle control using unpaired Student's t tests, using commercial software (Microsoft Excel®, SAS® Version 8.2, GB Stat® Version 6.5). With this test system, with compounds of the formula I a decrease of the number of marbles buried and thus an anxiolytic effect can be found, preferably a significant effect (p<0.01) by an i.p. dosage in the range from 1 to 100 mg/kg.
The test is performed as described above.

| SMILES | Number of marbles covered by sawdust, % change from control (Vehicle) (32 mg/kg i.p. −30 min) [%] | Number of marbles covered by sawdust, mean ± s.e.m. (32 mg/kg i.p. −30 min) | Number of marbles covered by sawdust, % change from control (Vehicle) (1 mg/kg i.p. −30 min) [%] | Number of marbles covered by sawdust, mean ± s.e.m. (1 mg/kg i.p. −30 min) [NS] | Number of marbles covered by sawdust, % change from control (Vehicle) (3 mg/kg i.p. −30 min) [%] | Number of marbles covered by sawdust, mean ± s.e.m. (3 mg/kg i.p. −30 min) [NS] | Number of marbles covered by sawdust, % change from control (Vehicle) (10 mg/kg i.p. −30 min) [%] | Number of marbles covered by sawdust, mean ± s.e.m. (10 mg/kg i.p. −30 min) |
| --- | --- | --- | --- | --- | --- | --- | --- | --- |
| CNCCC(Oc1ccc(C(F)(F)F)cc1)c1ccccc1 (centres unmarked) [FLUOXETINE, Fluoxetine, reference compound] | −100 | 0.0 ± 0.0 | – | – | – | – | – | – |
| CC(C)C[C@@H](c1c(O)c(C=O)c(O)c(C=O)c1O)[C@@]1(C)CC[C@@H]2[C@@H]1[C@H]1[C@@H](CC[C@@]2(C)O)C1(C)C [Macrocarpale A, Macrocarpal A] | – | – | −5 | 15.7 ± 2.5 | −37 | 10.4 ± 2.3 | −53 | 7.7 ± 2.4 |
